Laboratory results taken from patent US20100267561A1, “HERBICIDAL PYRIDAZINONE DERIVATIVES” (priority 2007, published 2010).
Where two headings read alike, the source gives them in different places.

Assays:
Assay in all cases: Test B pre-/postemergence plant response
Type in all cases: in vivo
[1] = tested on: pigweed (Amaranthus retroflexus); details: for pest or weed control at 31 g/ha / pest or weed control at 62 g/ha: Amaranthus retroflexus, read-out: Plant response rating, Pigweed; for pest or weed control at 31 g/ha: 31 g ai/ha; for pest or weed control at 62 g/ha: 62 g ai/ha, 100 complete control
Procedure, shortened: (§1)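 Visual scoring from 0 (no effect) to 100 (complete control) against untreated controls was done 13 to 15 days after greenhouse treatment. Chemicals were formulated in a surfactant-containing non-phytotoxic solvent and applied to soil preemergence or to 1- to 4-leaf (2-18 cm) plants postemergence.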

[2] = tested on: goosegrass (Eleusine indica); details: for pest or weed control at 31 g/ha / pest or weed control at 62 g/ha: Eleusine indica, read-out: Plant response rating, Goosegrass; for pest or weed control at 31 g/ha: 31 g ai/ha; for pest or weed control at 62 g/ha: 62 g ai/ha, 100 complete control
Procedure, shortened: as §1

[3] = tested on: catchweed bedstraw (Galium aparine); details: Preemergence
Procedure, shortened: as §1

[4] = tested on: lambsquarters (Chenopodium album); details: for pest or weed control at 31 g/ha / pest or weed control at 62 g/ha: Chenopodium album, read-out: Plant response rating, Lambsquarters; for pest or weed control at 31 g/ha: 31 g ai/ha; for pest or weed control at 62 g/ha: 62 g ai/ha, 100 complete control
Procedure, shortened: as §1

[5] = tested on: woolly cupgrass (Eriochloa villosa); details: for pest or weed control at 31 g/ha: 31 g ai/ha; for pest or weed control at 62 g/ha: 62 g ai/ha, 100 complete control
Procedure, shortened: as §1

[6] = tested on: blackgrass (Alopecurus myosuroides); details: for pest or weed control at 31 g/ha: 31 g ai/ha; for pest or weed control at 62 g/ha: 62 g ai/ha, 100 complete control
Procedure, shortened: as §1

wild oat (Avena fatua) = details: for pest or weed control at 31 g/ha / pest or weed control at 62 g/ha: Avena fatua, read-out: Plant response rating, Oat, Wild; for pest or weed control at 31 g/ha: 31 g ai/ha; for pest or weed control at 62 g/ha: 62 g ai/ha, 100 complete control
Procedure, shortened: as §1

[7] = tested on: common ragweed (Ambrosia elation); details: postemergence, 0-100 scale
Procedure, shortened: as §1

[8] = 8 g ai/ha, postemergence, 0-100 scale
[9] = 16 g ai/ha, postemergence, 0-100 scale
[10] = post-emergence, Postemergence, scale 0 to 100
[11] = post-emergence, Postemergence, scale 0 to 100, 0 no effect
[12] = pre-emergence, Preemergence, scale 0 to 100 (0 no effect, 100 complete control)
[13] = pre-emergence, Preemergence, 0 to 100 scale, 0 no effect
[14] = Preemergence, 8 g ai/ha, scale 0 to 100 (0 no effect, 100 complete control)
[15] = Preemergence, 16 g ai/ha, scale 0 to 100

Compound: Cc1nn(C)c(=O)c(-c2nc(-c3ccc(Cl)cc3)sc2C)c1O [Compound 79, 4-[2-(4-chlorophenyl)-5-methyl-4-thiazolyl]-5-hydroxy-2,6-dimethyl-3(2H)-pyridazinone]
- Pigweed plant response rating [1, 8]: 0
- Pigweed plant response rating [1, 9]: 0
- pest or weed control at 31 g/ha [1, 10]: 0%
- pest or weed control at 62 g/ha [1, 11]: 0%
- pest or weed control at 31 g/ha [1, 12]: 0%
- pest or weed control at 62 g/ha [1, 13]: 0%
- Pigweed plant response rating [1, 14]: 0
- Pigweed plant response rating [1, 15]: 0
- Goosegrass plant response rating [2, 8]: 60
- Goosegrass plant response rating [2, 9]: 80
- pest or weed control at 31 g/ha [2, 10]: 85%
- pest or weed control at 62 g/ha [2, 11]: 90%
- pest or weed control at 31 g/ha [2, 12]: 100%
- pest or weed control at 62 g/ha [2, 13]: 100%
- Goosegrass plant response rating [2, 14]: 98
- Goosegrass plant response rating [2, 15]: 100
- pest or weed control at 31 g/ha ([3]; Galium aparine, pre-emergence, 31 g ai/ha, scale 0 to 100 (0 no effect, 100 complete control), read-out: Plant response rating, Galium): 0%
- pest or weed control at 62 g/ha ([3]; Galium aparine, pre-emergence, 62 g ai/ha, 0 to 100 scale, 0 no effect, 100 complete control, read-out: Plant response rating, Galium): 0%
- Galium plant response rating ([3]; 8 g ai/ha, scale 0 to 100 (0 no effect, 100 complete control)): 0
- Galium plant response rating ([3]; 16 g ai/ha, scale 0 to 100): 0
- Lambsquarters plant response rating [4, 8]: 0
- Lambsquarters plant response rating [4, 9]: 0
- pest or weed control at 31 g/ha [4, 10]: 0%
- pest or weed control at 62 g/ha [4, 11]: 0%
- pest or weed control at 31 g/ha [4, 12]: 20%
- pest or weed control at 62 g/ha [4, 13]: 100%
- Lambsquarters plant response rating [4, 14]: 0
- Lambsquarters plant response rating [4, 15]: 0
- Cupgrass, Woolly plant response rating [5, 8]: 60
- pest or weed control at 16 g/ha ([5]; Eriochloa villosa, post-emergence, Postemergence, 16 g ai/ha, scale 0 to 100, read-out: Plant response rating, Cupgrass, Woolly): 65%
- pest or weed control at 31 g/ha ([5]; Eriochloa villosa, post-emergence, Postemergence, scale 0 to 100, read-out: Plant response rating, Cupgrass, Woolly): 75%
- pest or weed control at 62 g/ha ([5]; Eriochloa villosa, post-emergence, Postemergence, scale 0 to 100, 0 no effect, read-out: Plant response rating, Cupgrass, Woolly): 80%
- pest or weed control at 31 g/ha ([5]; Eriochloa villosa, pre-emergence, Preemergence, scale 0 to 100 (0 no effect, 100 complete control), read-out: Plant response rating, Cupgrass, Woolly): 100%
- pest or weed control at 62 g/ha ([5]; Eriochloa villosa, pre-emergence, Preemergence, 0 to 100 scale, 0 no effect, read-out: Plant response rating, Cupgrass, Woolly): 100%
- Cupgrass, Woolly plant response rating [5, 14]: 20
- Cupgrass, Woolly plant response rating [5, 15]: 65
- Blackgrass plant response rating [6, 8]: 50
- pest or weed control at 16 g/ha ([6]; Alopecurus myosuroides, post-emergence, Postemergence, 16 g ai/ha, scale 0 to 100, read-out: Plant response rating, Blackgrass): 50%
- pest or weed control at 31 g/ha ([6]; Alopecurus myosuroides, post-emergence, Postemergence, scale 0 to 100, read-out: Plant response rating, Blackgrass): 90%
- pest or weed control at 62 g/ha ([6]; Alopecurus myosuroides, post-emergence, Postemergence, scale 0 to 100, 0 no effect, read-out: Plant response rating, Blackgrass): 98%
- pest or weed control at 31 g/ha ([6]; Alopecurus myosuroides, pre-emergence, Preemergence, scale 0 to 100 (0 no effect, 100 complete control), read-out: Plant response rating, Blackgrass): 98%
- pest or weed control at 62 g/ha ([6]; Alopecurus myosuroides, pre-emergence, Preemergence, 0 to 100 scale, 0 no effect, read-out: Plant response rating, Blackgrass): 100%
- Blackgrass plant response rating [6, 14]: 85
- Blackgrass plant response rating [6, 15]: 85
- Oat, Wild plant response rating (wild oat (Avena fatua); [8]): 30
- Oat, Wild plant response rating (wild oat (Avena fatua); [9]): 45
- pest or weed control at 31 g/ha (wild oat (Avena fatua); [10]): 60%
- pest or weed control at 62 g/ha (wild oat (Avena fatua); [11]): 98%
- pest or weed control at 31 g/ha (wild oat (Avena fatua); [12]): 70%
- pest or weed control at 62 g/ha (wild oat (Avena fatua); [13]): 95%
- Oat, Wild plant response rating (wild oat (Avena fatua); [14]): 0
- Oat, Wild plant response rating (wild oat (Avena fatua); [15]): 0
- Ragweed plant response rating ([7]; 8 g ai/ha): 0
- Ragweed plant response rating ([7]; 16 g ai/ha): 0
